Data published in patent US9078851B2, “Composition for preventing or treating a spinal cord injury” (UNIVERSITY-INDUSTRY COOPERATION GROUP OF KYUNG HEE, priority 2009, dated 2015).

Assays:
Format in all cases: in vivo, rat
[1] = test system: TNF-α and IL-10 in peripheral blood; assay: ELISA of cytokines in peripheral blood in spinal cord injury model; conditions: 5 nmol/kg tail vein; serum at 1 hour, 6 hours, 1 day, 3 days, 5 days; vs control
Procedure: (§1) For the present experiment, male white mice (Sprague-Dawley 240-250 g, 7 weeks, 10 mice) were under general anesthetics by an intraperitoneal injection of Ketamin (80 mg/kg, Yuhan Corporation) and Rompun (7.4 mg/kg, Bayer Korea Corporation). Laminectomy was performed at spine T9-10 level to expose a spinal cord keeping intact dura. And then, rat was put on Spinal cord dropping device (NYU); spine processes at T8 and T11 sites were fixed by using a clamp, respectively; then, a rod (diameter 2 mm, weight 10 g) was dropped from 25 mm height vertical to dorsal part of spinal cord followed by suturing injury site muscle and skin. The rat of Sham-operated control group was performed only laminectomy at same area without damaging spinal cord injury (marked by ‘sham” in figures; hereinafter, the same as above). […]
At immediately, 1 d, 2 ds, in order to investigate an effect of Substance P in cytokine in a peripheral blood, Substance P (5 nmol/kg in saline) or saline (the same volume without Substance P) was injected through tail vein, respectively using the same method as (1) of Example 1. […] Finally, The levels of TNF-α and IL-10 were measured by using ELISA kit (R&D Systems).

[2] = test system: M2 (ED1 positive, CD206 positive) phenotype macrophages; assay: MACS assay of M1/M2 phenotype macrophages in spinal cord injury model; conditions: tail vein injection, five days after spinal cord injury
Procedure: as §1, with “skin.” for “skin. The rat of Sham-operated control group was performed only laminectomy at same area without damaging spinal cord injury (marked by ‘sham” in figures; hereinafter, the same as above).”
Microglia and macrophage have an inflammatory macrophage phenotype (M1) and selectively activated macrophage phenotype (M2). […] MACS (Miltenyi Biotec, Bergisch Gladbach) assay was performed in order to determine a quantitative amount of M1 (ED1 positive, CD206 negative) and M2 (ED1 positive, CD206 positive) phenotype macrophages after Substance P-injection in a spinal cord injury model.
At immediately, 1 d, 2d, Substance P or saline (the same volume without Substance P) was injected to a tail vein after a spinal cord injury, using the same method as (1) of Example 1. […] Magnetically labeled cells were collected by washing the column and then counted. […]

[3] = test system: caspase-3; assay: Western blot of cleaved caspase-3 in spinal cord tissue; conditions: tail vein injection, one day and five days after injury
Procedure: as §1
(2) Substance P or saline (the same volume without Substance P) was injected to a tail vein of mice, respectively at immediately, 1 d, 2 ds after a spinal cord injury, using the same method as (1) of Example 1. […] The amounts of proteins in supernatant were determined by using BCA assay (Pierce). […] At this time, β-Tubulin was used as an inner comparing group, and each result were determined by performing four independent experiments.

Substance P
level of IL-10 in peripheral blood [1]: no meaningful differences | level of TNF-α in peripheral blood [1]: no meaningful differences | CD-206 positive percentage as compared with the control [2]: about 6.5 times | activated microglia/macrophages CD-206 positive [2]: 58.7% | activation of caspase-3 [3]: significantly decreased
